What is called EC50 is the midpoint of the concentration-response curve.

Molecules are shown by their SMILES. A value given as a limit tells only on which side of the number the result lay.

For the experiment, the system named is HCV 1b RLuc cells (dicistronic genotype 1b Con1 replicon). Kind of experiment: Renilla luciferase (RLuc)-based HCV replicon reporter assay. It is filed as cell-based, HCV genotype 1b. As to conditions: Hepatitis C virus, 72 h, HCV 1b RLuc replicon, 72 hours; read-out: Activity (antiviral potency [EC50]). Summed up:
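HCV 1b RLuc cells carrying a dicistronic genotype 1b Con1 replicon were treated with serially diluted compounds from 10 mM DMSO stocks. After 72 h, cells were lysed and Renilla luciferase activity measured. EC50 was obtained by non-linear regression.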
On the technique in general: Replicon systems follow genome replication, usually without infectious particles.
Consider `COC(=O)N[C@H](C(=O)N1CCC[C@H]1c1ncc(C(=O)N2CCN(c3ccc(-c4cnc([C@@H]5CCCN5C(=O)[C@@H](NC(=O)OC)C(C)C)[nH]4)cc3)CC2)[nH]1)C(C)C`, for which the EC50 was > 44.4 nM.

With `COC(=O)NC(C(=O)N1CCC[C@H]1c1ncc(-c2ccc(-c3ccc4cc(-c5cnc([C@@H]6CCCN6C(=O)[C@@H](NC(=O)OC)C(C)C)[nH]5)ccc4c3)cc2)[nH]1)=C1CCOCC1`, the EC50 came out at 0.0483 nM.

Take `COC(=O)N[C@H](C(=O)N1CCC[C@H]1c1ncc(-c2ccc(-c3ccc(-c4cnc([C@@H]5CC6(CN5C(=O)[C@@H](NC(=O)OC)C(C)C)OCCO6)[nH]4)cc3)cc2)[nH]1)C(C)C`: the EC50 is 0.0555 nM.

`COC(=O)N[C@H](C(=O)N1CCC[C@H]1c1ncc(-c2ccc3cc(-c4ccc(-c5cnc([C@@H]6CCCN6C(=O)[C@H](NC(=O)OC)C6CCOCC6)[nH]5)cc4)ccc3c2)[nH]1)C(C)C`: the EC50 was 0.171 nM.

Regarding `COC(=O)N[C@H](C(=O)N1CCC[C@H]1c1ncc(-c2cc3c(C)c4sc(-c5cnc([C@@H]6CCCN6C(=O)[C@@H](NC(=O)OC)C6CCOCC6)[nH]5)cc4c(C)c3s2)[nH]1)C1CCOCC1`, the EC50 was 0.106 nM.

For the molecule `COC(=O)N[C@H](C(=O)N1CCC[C@H]1c1ncc(-c2ccc3cc(-c4ccc(-c5cnc(-c6cccn6S(=O)(=O)c6ccccc6)[nH]5)cc4)ccc3c2)[nH]1)C(C)C`, the EC50 turned out to be 24.1 nM.

With `COCC[C@H](NC(=O)OC)C(=O)N1CCS[C@H]1c1ncc(-c2ccc(-c3ccc4cc(-c5cnc([C@@H]6CC7(CC7)CN6C(=O)[C@@H](NC(=O)OC)C(C)C)[nH]5)ccc4c3)cc2)[nH]1`, the EC50 was 0.0402 nM.

As for `COC(=O)N[C@H](C(=O)N1CCC[C@H]1c1ncc(-c2ccc(-c3ccc(-c4ccc5nc([C@@H]6CCCN6C(=O)[C@@H](NC(=O)OC)C(C)C)[nH]c5c4)s3)cc2)[nH]1)C(C)C`, the EC50 is 0.003 nM.

On to `COC(=O)N[C@@H](CCOC(F)F)C(=O)N1CC2(CC2)C[C@H]1c1ncc(-c2ccc3cc(-c4ccc(-c5cnc([C@@H]6[C@H]7CC[C@H](C7)N6C(=O)[C@@H](NC(=O)OC)C(C)C)[nH]5)cc4)ccc3c2)[nH]1`, for which the EC50 was 0.0114 nM.

Turning to `COC(=O)N[C@H](C(=O)NC1(c2ncc(-c3ccc(-c4ccc(-c5cnc([C@@H]6CCCN6C(=O)[C@@H](NC(=O)OC)C(C)C)[nH]5)cc4)cc3)[nH]2)CCC1)C(C)C`, the EC50 stood at 0.0184 nM.

Regarding `COC(=O)N[C@H](C(=O)N1CCC(c2ncc(-c3ccc(-c4ccc(-c5cnc([C@@H]6CCCN6C(=O)[C@@H](NC(=O)OC)C(C)C)[nH]5)cc4)cc3)[nH]2)C1)C(C)C` (stereo partly shown), the EC50 amounted to 0.775 nM.

Consider `COC(=O)N[C@@H](CCS(C)(=O)=O)C(=O)N1[C@@H]2CC[C@@H](C2)[C@H]1c1nc2ccc(-c3ccc4c(c3)C(F)(F)c3cc(-c5cnc([C@@H]6CC7(CC7)CN6C(=O)[C@@H](NC(=O)OC)C(C)C)[nH]5)ccc3-4)cc2[nH]1`, for which the EC50 was 0.0218 nM.

Take `COC(=O)N[C@H](C(=O)N1CCC[C@H]1c1ncc(-c2ccc(C#Cc3ccc(-c4cnc([C@@H]5CNCCN5C(=O)[C@@H](NC(=O)OC)C(C)C)[nH]4)cc3)cc2)[nH]1)C(C)C`: the EC50 stood at 0.201 nM.

With `CNC(=O)N1C[C@@H](c2ncc(-c3ccc(C#Cc4ccc(-c5cnc([C@@H]6CCCN6C(=O)[C@@H](NC(=O)OC)C(C)C)[nH]5)cc4)cc3)[nH]2)N(C(=O)[C@@H](NC(=O)OC)C(C)C)C1`, the EC50 came out at 0.245 nM.

Regarding `COC(=O)N[C@H](C(=O)N1CCC[C@H]1c1ncc(-c2ccc3c(c2)C(F)(F)c2cc(-c4ccc5nc([C@@H]6CCCN6C(=O)[C@@H](NC(=O)OC)C(C)C)[nH]c5c4)ccc2-3)[nH]1)C(C)C`, the EC50 is < 0.0023 nM.

For `COC(=O)N[C@H](C(=O)N1CCC[C@H]1c1ncc(-c2ccc(-c3ccc4cc(-c5cnc([C@@H]6C[C@H](C#N)CN6C(=O)[C@H](NC(=O)OC)c6ccccc6)[nH]5)ccc4c3)cc2)[nH]1)C(C)C`, the EC50 stood at 0.0097 nM.

`COC(=O)N[C@H](C(=O)N1CCC[C@H]1c1ncc(-c2ccc3cc(-c4ccc(-c5cnc([C@@H]6CCCN6C(=O)[C@H](NC(=O)OC)c6ccccc6OC)[nH]5)cc4)ccc3c2)[nH]1)C(C)C`: the EC50 was 0.0073 nM.

With `COC(=O)N[C@H](C(=O)N1CCC[C@H]1c1ncc(-c2ccc3c(c2)CCc2cc(-c4cnc([C@@H]5[C@H]6CC[C@H](C6)N5C(=O)[C@@H](NC(=O)OC)C(C)C)[nH]4)ccc2-3)[nH]1)C(C)C`, the EC50 stood at 0.0088 nM.

For `COC(=O)NC(C(=O)N1CCC[C@H]1c1ncc(-c2ccc3c(c2)COc2c-3ccc3cc(-c4cnc([C@@H]5CCCN5C(=O)C(NC(=O)OC)c5ccccc5)[nH]4)ccc23)[nH]1)c1ccccc1` (stereo partly shown), the EC50 amounted to 0.0275 nM.

On to `COC(=O)N[C@H](C(=O)N1CC2(CC2)C[C@H]1c1ncc(-c2ccc3cc(-c4ccc(-c5cnc([C@@H]6[C@H]7CC[C@H](C7)N6C(=O)[C@@H](NC(=O)OC)C(C)(C)C)[nH]5)cc4)ccc3c2)[nH]1)C(C)C`, for which the EC50 is 0.009 nM.

Consider `COC(=O)N[C@H](C(=O)N1CCC[C@H]1C(=O)Nc1cccc(-c2ccc(-c3ccc(-c4cnc([C@@H]5CCCN5C(=O)[C@@H](NC(=O)OC)C(C)C)[nH]4)cc3)cc2)c1)C(C)C`, for which the EC50 stood at 0.0111 nM.

`COC(=O)N[C@H](C(=O)N1CCC[C@H]1c1ncc(-c2ccc(-c3ccc(-c4cnc([C@@H]5C[C@H](COC(F)F)CN5C(=O)[C@@H](NC(=O)OC)C(C)C)[nH]4)cc3)cc2)[nH]1)C(C)C`: the EC50 worked out at 0.015 nM.

`COC(=O)N[C@H](C(=O)N1CCC[C@H]1c1ncc(-c2ccc3cc4cc(-c5cnc([C@@H]6CCCN6C(=O)[C@@H](NC(=O)OC)C(C)C)[nH]5)ccc4cc3c2)[nH]1)C(C)C`: the EC50 was 0.007 nM.

In the case of `COC(=O)N[C@H](C(=O)N1CCC[C@H]1c1ncc(C#Cc2ccc3cc(-c4cnc([C@@H]5CCCN5C(=O)[C@@H](NC(=O)OC)C(C)C)[nH]4)ccc3c2)[nH]1)C(C)C`, the EC50 was 0.0106 nM.

For `COC(=O)N[C@H](C(=O)N1CCC[C@H]1c1ncc(-c2ccc(C#Cc3ccc(-c4cnc([C@@H]5CN(CC(F)(F)F)CN5C(=O)[C@@H](NC(=O)OC)C(C)C)[nH]4)cc3)cc2)[nH]1)C(C)C`, the concentration for a half-maximal effect (EC50) was determined as 0.0304 nM.

On to `COC(=O)N[C@H](C(=O)N1CC2(CC2)C[C@H]1c1ncc(-c2ccc3cc(-c4ccc(-c5cnc([C@@H]6C[C@H](C#N)CN6C(=O)[C@@H](NC(=O)OC)C(C)(C)C)[nH]5)cc4)ccc3c2)[nH]1)C(C)C`, for which the EC50 was 0.0127 nM.

On to `COC(=O)N[C@H](C(=O)N1CCC[C@H]1c1ncc(-c2ccc3c(c2)Sc2ccc(-c4cnc([C@@H]5CCCN5C(=O)[C@@H](NC(=O)OC)C(C)C)[nH]4)cc2S3)[nH]1)C(C)C`, for which the 50% effective concentration (EC50) came to 0.0058 nM.

On to `COC(=O)N[C@H](C(=O)N1CCC[C@H]1c1nc2ccc(-c3cc4cc5sc(-c6ccc7nc([C@@H]8CCCN8C(=O)[C@@H](NC(=O)OC)C(C)C)[nH]c7c6)cc5cc4s3)cc2[nH]1)C(C)C`, for which the EC50 amounted to 0.014 nM.

Regarding `COC(=O)N[C@H](C(=O)N1CCC[C@H]1c1ncc(-c2ccc3c4ccc(-c5cnc([C@@H]6CCCN6C(=O)[C@@H](NC(=O)OC)C(C)C)[nH]5)cc4[s+]([O-])c3c2)[nH]1)C(C)C`, the EC50 stood at 0.0322 nM.

Take `COC(=O)N[C@H](C(=O)N1CC2(CC2)C[C@H]1c1ncc(-c2ccc3cc(-c4ccc(-c5cnc([C@@H]6CC7(CN6C(=O)[C@@H](NC(=O)OC)C(C)C)OCCO7)[nH]5)cc4)ccc3c2)[nH]1)C(C)C`: the EC50 is 0.0063 nM.

For the molecule `COC(=O)N[C@H]1CCCN(Cc2ncc(-c3ccc(-c4ccc(-c5cnc([C@@H]6CCCN6C(=O)[C@@H](NC(=O)OC)C(C)C)[nH]5)cc4)cc3)[nH]2)C1=O`, the half-maximal effective concentration (EC50) was found to be 0.147 nM.

Values taken from patent US8822430B2 (Gilead Sciences, Inc., priority 2009, dated 2014).
